We go through ten molecules from PMC5623949, “Exploiting the 2-Amino-1,3,4-thiadiazole Scaffold To Inhibit Trypanosoma brucei Pteridine Reductase in Support of Early-Stage Drug Discovery” (ACS Omega, 2017).

Like-named read-outs stand apart in the source and are kept apart here.

One series has as its target T1, hERG (Homo sapiens, UniProt Q12809).
T1 construct: gene KCNH2
Details: hERG inhibition liability assay. As to the method: (§1) Independent of the effect of any antiparasitic potential of compounds, they were evaluated using a panel of early-toxicity assays comprising cytotoxicity (A549, human lung adenocarcinoma epithelial cell line and WI-38, human lung fibroblasts), mitochondrial toxicity (786-O, human renal carcinoma cell line), hERG inhibition,[31] cytochrome P450 inhibition (CYP1A2, CYP2C9, CYP2C19, CYP2D6, and CYP3A4),[31] and Aurora B kinase inhibition. […] For the two compounds active against TbPTR1 (4m and 4o), IC50 against hERG, cytochrome P450, and mitochondrial toxicity were determined (reported in Supporting Information). We observed that the dose of compounds 4m, 4o, 4c, and 3k was 4 μM in the potentiation assays. […] In the case of hERG, CYP2D6, CYP2A9, CYP2C19, and mitochondrial toxicity, there is a selectivity index of around 3–4 fold, thus showing an acceptable profile.  Figure 10 Summary heat map of the in vitro assays to determine possible liability issues for all synthesized compounds. Assays were performed to assess inhibition of hERG and five CYP isoforms (1A2, 2C9, 2C19, 2D6, and 3A4), growth inhibition of A549 and W1-38 cell lines, and mitochondrial toxicity at 10 μM. The hDHFR inhibition was determined at 100 μM. The data, expressed as percentage values, were organized by adopting a color code for rapid and intuitive visualization. The ideal compound should have all tiles blue, indicating a safe toxicological profile for progressing into the development pipeline. The cells are colored from blue (100% of cell growth at the tested concentration) to red (0% of cell growth at the tested concentration) for A549 and W1-38 and from blue (0% of inhibitory activity at the tested concentration) to red (100% of inhibitory activity at the tested concentration) for CYP isoforms, hERG, hDHFR, and mitochondrial toxicity.

In a further series the target is T2, TbPTR1 (Trypanosoma brucei brucei, UniProt O76290).
T2 construct: made in house
T2 sequence (O76290 1-268): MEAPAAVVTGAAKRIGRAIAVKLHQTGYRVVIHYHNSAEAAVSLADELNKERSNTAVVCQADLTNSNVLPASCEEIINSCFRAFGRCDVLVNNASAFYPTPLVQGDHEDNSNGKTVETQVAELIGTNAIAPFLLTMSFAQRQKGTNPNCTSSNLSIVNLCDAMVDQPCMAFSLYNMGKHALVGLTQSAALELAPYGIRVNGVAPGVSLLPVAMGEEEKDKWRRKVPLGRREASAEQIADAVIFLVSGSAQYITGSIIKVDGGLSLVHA
Description: biochemical. The conditions noted are these: for inhibition at 50 µM: 50 μM compound, read-out: % Inhibition TbPTR1 at 50 μM; for IC50: dose-response 0.001-100 μM.

A further series has as its target CYP3A4 (Homo sapiens, UniProt P08684). Nature of the series: in vitro. The arrangement: cytochrome P450 isoform inhibition liability assay. The protocol: as §1
A further series addresses CYP2C9 (Homo sapiens, UniProt P11712). Description: in vitro. The arrangement: cytochrome P450 isoform inhibition liability assay. As to the method: as §1
A further series has as its target T3, CYP1A2 (Homo sapiens, UniProt P05177).
T3 sequence (P05177 1-516): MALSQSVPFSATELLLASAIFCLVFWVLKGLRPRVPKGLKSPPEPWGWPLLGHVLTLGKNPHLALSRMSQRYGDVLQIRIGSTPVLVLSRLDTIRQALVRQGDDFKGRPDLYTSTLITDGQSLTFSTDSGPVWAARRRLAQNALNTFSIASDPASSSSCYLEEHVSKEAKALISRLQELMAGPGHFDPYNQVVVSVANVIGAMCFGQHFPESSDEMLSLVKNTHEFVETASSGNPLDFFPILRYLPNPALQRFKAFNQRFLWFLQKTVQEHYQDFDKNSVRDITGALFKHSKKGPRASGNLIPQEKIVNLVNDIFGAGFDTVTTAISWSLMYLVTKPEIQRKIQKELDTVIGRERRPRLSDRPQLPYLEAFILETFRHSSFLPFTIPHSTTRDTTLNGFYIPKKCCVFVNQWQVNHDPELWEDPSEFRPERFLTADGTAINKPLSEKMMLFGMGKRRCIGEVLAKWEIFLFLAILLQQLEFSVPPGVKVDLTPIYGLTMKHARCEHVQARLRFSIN
Nature of the series: in vitro. The arrangement: cytochrome P450 isoform inhibition liability assay. As to the method: as §1

Another series deals with CYP2D6 (Homo sapiens, UniProt P10635). Description: in vitro. Details: cytochrome P450 isoform inhibition liability assay. The protocol: as §1
Another series concerns the target CYP2C19 (Homo sapiens, UniProt P33261). Nature of the series: in vitro. The arrangement: cytochrome P450 isoform inhibition liability assay. As to the method:
as §1

Series [1] relates to T. b. brucei Lister 427 bloodstream forms. Nature of the series: In vitro activity against T. brucei (HTS SYBR Green I growth inhibition assay). In kind it is cell-based, Trypanosoma brucei brucei. The conditions noted are these: standard deviation within ±10% of the value; for EC50 / inhibition at 50 µM: Trypanosoma brucei; for EC50: read-out: EC50 T. brucei; for inhibition at 50 µM: read-out: % Inhibition T. brucei at 50 μM.

The nature of series [2]: in vitro. Details: cytotoxicity, per cent cell growth of A549 cells. The conditions noted are these: human, a549 cells; read-out: % cell growth A549 at 10uM. The protocol: as §1
A short description of series [3]: in vitro. The arrangement: cytotoxicity, per cent cell growth of WI-38 fibroblasts. The conditions noted are these: human, wi-38 cells; read-out: % cell growth W1-38 at 10uM. As to the method: as §1
For a further series, the target named is T4, hDHFR (Homo sapiens, UniProt P00374).
T4 construct: gene DHFR
T4 sequence (P00374 1-187): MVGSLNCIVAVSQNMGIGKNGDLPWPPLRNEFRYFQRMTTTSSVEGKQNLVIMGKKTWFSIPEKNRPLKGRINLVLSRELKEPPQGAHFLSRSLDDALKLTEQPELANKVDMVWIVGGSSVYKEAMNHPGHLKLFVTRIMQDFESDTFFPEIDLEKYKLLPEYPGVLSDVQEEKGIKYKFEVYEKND
Nature of the series: biochemical. Details: human DHFR enzyme inhibition. As to the method: Figure 10 Summary heat map of the in vitro assays to determine possible liability issues for all synthesized compounds. Assays were performed to assess inhibition of hERG and five CYP isoforms (1A2, 2C9, 2C19, 2D6, and 3A4), growth inhibition of A549 and W1-38 cell lines, and mitochondrial toxicity at 10 μM. The hDHFR inhibition was determined at 100 μM. The data, expressed as percentage values, were organized by adopting a color code for rapid and intuitive visualization. The ideal compound should have all tiles blue, indicating a safe toxicological profile for progressing into the development pipeline. The cells are colored from blue (100% of cell growth at the tested concentration) to red (0% of cell growth at the tested concentration) for A549 and W1-38 and from blue (0% of inhibitory activity at the tested concentration) to red (100% of inhibitory activity at the tested concentration) for CYP isoforms, hERG, hDHFR, and mitochondrial toxicity.

The test system of another series is 786-O. Nature of the series: cells. Details: mitochondrial toxicity in 786-O renal carcinoma cells. The conditions noted are these: Homo sapiens, 786-0; mitochondrial toxicity. As to the method:
as §1

CYP2C19, sequence (P33261 whole entry, canonical isoform): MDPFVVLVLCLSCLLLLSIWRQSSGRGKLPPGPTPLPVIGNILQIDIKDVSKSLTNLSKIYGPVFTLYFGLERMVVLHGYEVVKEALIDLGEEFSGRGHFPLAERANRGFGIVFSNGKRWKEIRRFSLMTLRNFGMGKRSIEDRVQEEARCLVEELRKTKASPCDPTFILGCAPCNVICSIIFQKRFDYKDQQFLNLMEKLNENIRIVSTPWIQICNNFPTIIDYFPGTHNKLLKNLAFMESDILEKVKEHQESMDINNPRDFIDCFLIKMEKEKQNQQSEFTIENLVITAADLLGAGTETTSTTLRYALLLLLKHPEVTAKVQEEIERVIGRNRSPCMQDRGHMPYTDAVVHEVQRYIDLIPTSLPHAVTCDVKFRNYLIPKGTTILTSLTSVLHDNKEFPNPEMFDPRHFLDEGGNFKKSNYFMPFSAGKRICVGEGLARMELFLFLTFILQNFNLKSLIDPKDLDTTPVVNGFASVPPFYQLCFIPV
CYP2D6, sequence (P10635 whole entry, canonical isoform): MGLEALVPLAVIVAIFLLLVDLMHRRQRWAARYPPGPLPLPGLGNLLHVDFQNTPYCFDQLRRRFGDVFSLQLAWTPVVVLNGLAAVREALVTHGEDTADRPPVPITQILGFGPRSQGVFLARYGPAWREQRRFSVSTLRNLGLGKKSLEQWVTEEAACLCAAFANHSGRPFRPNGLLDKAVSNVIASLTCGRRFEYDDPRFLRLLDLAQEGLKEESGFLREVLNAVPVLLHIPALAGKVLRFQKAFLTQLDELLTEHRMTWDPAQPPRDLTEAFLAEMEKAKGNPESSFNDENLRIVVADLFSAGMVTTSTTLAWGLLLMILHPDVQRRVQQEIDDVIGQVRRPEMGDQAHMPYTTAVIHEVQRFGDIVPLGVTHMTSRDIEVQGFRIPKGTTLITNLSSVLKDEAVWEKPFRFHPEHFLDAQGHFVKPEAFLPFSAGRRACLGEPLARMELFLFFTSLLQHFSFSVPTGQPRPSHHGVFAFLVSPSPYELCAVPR
CYP2C9, sequence (P11712 whole entry, canonical isoform): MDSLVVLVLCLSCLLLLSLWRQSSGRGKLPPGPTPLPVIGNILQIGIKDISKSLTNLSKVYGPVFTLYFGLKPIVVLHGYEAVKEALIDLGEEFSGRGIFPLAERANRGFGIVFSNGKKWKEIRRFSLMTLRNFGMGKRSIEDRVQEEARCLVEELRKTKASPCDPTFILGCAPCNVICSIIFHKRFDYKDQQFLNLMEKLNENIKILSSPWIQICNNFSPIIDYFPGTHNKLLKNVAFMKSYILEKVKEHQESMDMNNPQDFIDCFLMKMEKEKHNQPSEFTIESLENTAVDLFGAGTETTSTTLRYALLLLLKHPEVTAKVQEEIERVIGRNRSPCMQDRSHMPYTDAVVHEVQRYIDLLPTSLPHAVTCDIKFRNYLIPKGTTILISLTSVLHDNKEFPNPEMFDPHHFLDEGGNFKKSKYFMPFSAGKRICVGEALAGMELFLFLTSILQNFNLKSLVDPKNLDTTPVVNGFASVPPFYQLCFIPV
T1 sequence (Q12809 whole entry): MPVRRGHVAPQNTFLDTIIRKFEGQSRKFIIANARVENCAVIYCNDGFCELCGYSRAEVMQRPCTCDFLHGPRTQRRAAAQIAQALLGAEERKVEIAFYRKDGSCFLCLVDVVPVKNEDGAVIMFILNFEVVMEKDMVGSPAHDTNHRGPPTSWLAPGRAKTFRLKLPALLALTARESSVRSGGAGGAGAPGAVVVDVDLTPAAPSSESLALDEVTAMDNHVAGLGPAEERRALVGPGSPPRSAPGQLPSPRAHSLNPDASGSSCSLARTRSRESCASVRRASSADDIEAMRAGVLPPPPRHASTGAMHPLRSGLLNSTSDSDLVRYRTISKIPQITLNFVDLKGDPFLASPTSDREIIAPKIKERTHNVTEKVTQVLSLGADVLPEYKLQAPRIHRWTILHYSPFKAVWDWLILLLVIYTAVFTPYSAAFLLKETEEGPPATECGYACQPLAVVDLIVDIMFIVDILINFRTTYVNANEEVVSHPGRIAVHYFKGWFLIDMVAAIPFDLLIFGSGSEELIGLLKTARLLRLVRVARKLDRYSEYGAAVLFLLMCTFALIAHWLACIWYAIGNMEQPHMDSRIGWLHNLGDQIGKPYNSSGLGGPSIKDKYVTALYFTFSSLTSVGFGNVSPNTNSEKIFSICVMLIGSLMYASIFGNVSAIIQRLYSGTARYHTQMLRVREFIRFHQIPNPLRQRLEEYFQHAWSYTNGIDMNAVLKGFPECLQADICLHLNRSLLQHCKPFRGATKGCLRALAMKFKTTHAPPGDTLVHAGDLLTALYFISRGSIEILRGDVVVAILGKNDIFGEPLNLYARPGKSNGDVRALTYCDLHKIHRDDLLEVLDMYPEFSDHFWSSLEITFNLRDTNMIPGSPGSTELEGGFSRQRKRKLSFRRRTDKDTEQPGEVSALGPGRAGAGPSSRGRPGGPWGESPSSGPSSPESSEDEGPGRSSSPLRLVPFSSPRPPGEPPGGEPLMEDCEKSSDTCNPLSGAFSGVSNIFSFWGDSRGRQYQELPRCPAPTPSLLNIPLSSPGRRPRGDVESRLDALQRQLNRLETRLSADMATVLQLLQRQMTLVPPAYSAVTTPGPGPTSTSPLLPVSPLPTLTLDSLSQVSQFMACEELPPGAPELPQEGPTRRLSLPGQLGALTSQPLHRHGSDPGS
CYP3A4, sequence (P08684 whole entry, canonical isoform): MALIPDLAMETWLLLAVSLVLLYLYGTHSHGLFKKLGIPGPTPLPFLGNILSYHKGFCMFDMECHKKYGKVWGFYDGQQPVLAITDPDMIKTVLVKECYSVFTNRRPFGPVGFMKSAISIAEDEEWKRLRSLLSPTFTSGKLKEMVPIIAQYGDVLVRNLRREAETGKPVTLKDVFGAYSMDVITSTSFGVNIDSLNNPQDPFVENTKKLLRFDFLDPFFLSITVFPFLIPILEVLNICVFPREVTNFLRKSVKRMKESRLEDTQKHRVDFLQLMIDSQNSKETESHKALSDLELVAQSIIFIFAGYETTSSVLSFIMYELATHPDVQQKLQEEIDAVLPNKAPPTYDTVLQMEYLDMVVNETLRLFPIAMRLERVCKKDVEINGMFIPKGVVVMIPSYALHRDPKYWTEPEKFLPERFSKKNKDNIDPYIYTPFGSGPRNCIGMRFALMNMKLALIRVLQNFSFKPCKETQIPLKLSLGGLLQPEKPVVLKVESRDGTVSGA

Regarding `COc1cccc(CNc2nnc(N)s2)c1` [4i], the inhibition at 10 µM at hERG amounted to 108 ± 9.6%; at CYP3A4, 87.7 ± 0.4%; on CYP2C9, 33.5 ± 1.7%; on CYP1A2, 15.9 ± 1.1%; on CYP2D6, 105.2 ± 0.1%; at CYP2C19, 45.9 ± 0.8%. In the series on 786-O, the inhibition at 10 µM was -15.3 ± 24.3%. In addition, on TbPTR1, the inhibition at 50 µM is 31 ± 1.3%. At TbPTR1, this molecule displayed an IC50 of 56 µM. Moreover, in series [1] (50 μM), the “% Inhibition T. brucei at 50 μM” value is given as 95.6%. In series [1], the EC50 was 16 µM. For the same molecule, the results for the viability at 10 µM in “in vitro [2]” and in the series “in vitro [3]” were 107 ± 5.8% and 129 ± 14.1%, respectively. Besides, on hDHFR, the inhibition at 100 µM stood at 28%.

For the molecule `Nc1nnc(N2CCC(Cc3ccccc3)CC2)s1` [4r, 5G(4GbenzylpiperidinG1Gyl)G1,3,4GthiadiazolG2Gamine], the inhibition at 10 µM at hERG came to 46.5 ± 4.7%; on CYP3A4, 21.7 ± 4.3%; on CYP2C9, 45.9 ± 3.3%; at CYP1A2 it was 20 ± 1.2%; at CYP2D6, 82.7 ± 0.6%; at CYP2C19, 89.4 ± 2%. In the series on 786-O, the inhibition at 10 µM was -7.3 ± 10.5%. Moreover, the inhibition at 50 µM at TbPTR1 was 8.4 ± 0.3%; in series [1] (50 μM), 1.8%. Besides, the viability at 10 µM in the series “in vitro [2]” was found to be 111 ± 6.5%; in “in vitro [3]”, 92.7 ± 15.7%. At hDHFR, the inhibition at 100 µM was determined as 13%.

With `Nc1nnc(-c2cccc(-c3cccc(C(F)(F)F)c3)c2)s1` [2d], the inhibition at 50 µM at TbPTR1 came to 4.6 ± 1%; in [1] (50 μM), 94.8%. The inhibition at 10 µM worked out at 33.9 ± 3.8% on CYP3A4; 46.1 ± 5.4% on CYP2C9; 100 ± 2.1% on CYP1A2; 31.1 ± 4.3% on CYP2D6; 43.6 ± 2.1% on CYP2C19; 34% on hDHFR. Besides, in series [1], the EC50 is 37 µM.

Consider `COc1ccc(-c2cccc(-c3nnc(N)s3)c2)cc1OC` [2f], for which the inhibition at 10 µM was determined as 15.1 ± 4.8% on hERG; 48.3 ± 2.4% at CYP3A4; 53.2 ± 1.6% at CYP2C9; 92.8 ± 1.9% at CYP1A2; 19.2 ± 3.5% on CYP2D6; 1.6 ± 14.4% in the series on 786-O. The results for the inhibition at 50 µM (at TbPTR1; in series [1] (50 μM)) were 8.6 ± 0.6% and 9.5%, respectively. In addition, the viability at 10 µM was 106 ± 4.2% in “in vitro [2]” and 87.5 ± 44.4% in the series “in vitro [3]”. Moreover, the inhibition at 100 µM at hDHFR was found to be 28%.

Take `Nc1cccc(-c2nnc(N)s2)c1` [1j]: the inhibition at 10 µM on hERG was 32.6 ± 34.3%; at CYP3A4, -14.9 ± 3.9%; at CYP2C9, -20.2 ± 7.3%; on CYP1A2 it was 5.3 ± 5.1%; at CYP2D6, -51 ± 8.9%; on CYP2C19 it was -45.8 ± 11.8%. For the same molecule, the inhibition at 50 µM on TbPTR1 came out at 27 ± 0.4%; in [1] (50 μM), 1%. Also, the viability at 10 µM in the series “in vitro [2]” was 134 ± 4.7%; in “in vitro [3]” it was 92.5 ± 7.8%. In addition, the inhibition at 100 µM against hDHFR is 18%.

Take `Nc1nnc(-c2cccc(-c3ccc(C(F)(F)F)cc3)c2)s1` [2e]: the inhibition at 50 µM on TbPTR1 amounted to 6.6 ± 0.6%; in series [1] (50 μM), 92.1%. Besides, the inhibition at 10 µM came to 17.9 ± 5.3% on CYP3A4; 25.6 ± 4% at CYP2C9; 92.6 ± 1.1% on CYP1A2; 20 ± 5.8% at CYP2D6; 12.3 ± 5.4% at CYP2C19; 25% at hDHFR. In addition, in series [1], the EC50 came out at 42 µM.

In the case of `C[C@@H](c1cccc(C(=O)c2ccccc2)c1)c1nnc(N)s1` [3f], the inhibition at 10 µM at hERG was 16 ± 6.3%; at CYP3A4, 94.5 ± 0.8%; at CYP1A2, -14.2 ± 7.1%; on CYP2D6 it was -12.7 ± 6.2%; on CYP2C19 it was 39.3 ± 3.2%; in the series with 786-O it was -3.4 ± 2.1%. Also, the inhibition at 50 µM is 47.2 ± 0.4% at TbPTR1 and 88% in series [1] (50 μM). The EC50 in [1] was determined as 20 µM. The viability at 10 µM worked out at 134 ± 3.3% in “in vitro [2]” and 127 ± 21.4% in the series “in vitro [3]”. In addition, at hDHFR, the inhibition at 100 µM came out at 51%.

Turning to `Nc1nnc(NCCc2ccccc2)s1` [4n], the inhibition at 10 µM on hERG amounted to 91.4 ± 6.2%; on CYP3A4 it was 25.1 ± 4.3%; on CYP2C9, 30.4 ± 2.9%; on CYP1A2, 22.7 ± 1.9%; at CYP2D6 it was 103 ± 0.2%; at CYP2C19, 29.2 ± 6.6%. On TbPTR1, the “times less active than 4o against TbPTR1” value is “about 3 times”. In addition, the inhibition at 50 µM was 36.7 ± 2% on TbPTR1 and 4% in [1] (50 μM). The molecule also came in with an IC50 against TbPTR1 of 62 µM. Moreover, the viability at 10 µM in the series “in vitro [2]” stood at 112 ± 5.4%; in the series “in vitro [3]”, 66.1 ± 3.1%. The inhibition at 100 µM against hDHFR was 19%.

`Nc1nnc(-c2ccccc2Cc2ccccc2)s1` [1m, 5-(2-benzylphenyl)-1,3,4-thiadiazol-2-amine]: the inhibition at 10 µM at CYP3A4 came to 47.5 ± 4.8%; at CYP2C9, 36.5 ± 5.4%; on CYP1A2 it was 68.1 ± 1%; on CYP2D6 it was 69.2 ± 4.5%; at CYP2C19, 90.5 ± 0.6%; at hDHFR, 20%.

With `N#Cc1ccc(Cc2ccccc2-c2nnc(N)s2)cc1` [1n, 4-(2-(5-amino-1,3,4-thiadiazol-2-yl)benzyl)benzonitrile], the inhibition at 10 µM at CYP3A4 was 69.6 ± 3.25%; at CYP2C9 it was 59.8 ± 4.9%; at CYP1A2, 56.2 ± 0.5%; at CYP2D6 it was 75.4 ± 5.2%; on CYP2C19 it was 104 ± 2%. In addition, the inhibition at 25 µM at hDHFR (25 uM) came to 37%.
